Literature values, collected in patent publication US20250000865A1, “COMPOUND FOR REDUCING URIC ACID LEVELS” (NEWSOARA BIOPHARMA CO., LTD., priority 2021, published 2025).

Conditions: cited from earlier work

CCc1oc2ccccc2c1C(=O)c1cc(Br)c(O)c(Br)c1 [benbromarone, Benzbromarone]
sUA target level reached (after long-term treatment): < 6 mg/dL | side effects (in vivo): hepatotoxicity and acute liver failure
